According to patent US10947215B2, “Heteroaryl compounds and their use as therapeutic drugs” (Dong-A Socio Holdings Co., Ltd., priority 2015, dated 2021):

tested on: Ba/F3-CDM cells (Ba/F3 transfected with CD8-MerTK); test: In cell MER kinase assay, Ba/F3-CDM cell proliferation without IL-3 (Celltiter-Glo, GI50); format: cell-based, murine; conditions: 48 hours, read-out: Cell growth inhibition (GI50)
Method: In Cell MER Kinase Assay Using BaF3 Cellular System
To establish an in cell kinase assay for MerTK kinase, the IL-3 dependent Ba/F3 cells of murine lymphoid origin was transfected with CD8-MerTK. […] For a routine cellular assay, Ba/F3-CDM cells were seeded at 2,000 cells per well in 384-well cell culture plate containing DMEM/10% FBS culture media and incubated for 24 hours before addition of compounds pre-diluted in culture media. Following compound treatment, cells were further incubated for 48 hours and the proliferation was measured. To discriminate a Ba/F3 growth inhibition by a specific inhibition of MerTK kinase following compound treatment vs growth inhibition due to a non-specific unintended cytotoxicity of compounds, we routinely carried out control sets of Ba/F3 cells in parallel that grown in IL3-supplemented growth media. In the presence of IL-3, the proliferation of Ba/F3 is no longer dependent on the MerTK activity. Cell growth and proliferation was measured with Celltiter-Glo™ system (Promega, USA) according to the manufacturer's instruction. The half-maximal growth inhibitory concentration (GI50) value was calculated with Prism6.0 software (GraphPad, USA).

GI50 [nM]	SMILES
< 100	CN1CCN(Cc2ccc(-c3ccc(CO[C@H]4CCC[C@@H]4NC(=O)c4cc(-c5cnn(C)c5)cnc4N)c(F)c3)cc2)CC1 [Example 156, 2-amino-N-((1S,2S)-2-((3-fluoro-4′-((4-methylpiperazin-1-yl)-methyl)-[1,1′-biphenyl]-4-yl)methoxy)cyclopentyl)-5-(1-methyl-1H-pyrazol-4-yl)-nicotinamide]
< 100	CN1CCN(Cc2ccc(-c3ccc(CO[C@H]4CCC[C@@H]4NC(=O)c4cc(-c5cccnc5)cnc4N)cc3)cc2)CC1 [Example 375, 6-amino-N-((1S,2S)-2-((4′-((4-methylpiperazin-1-yl)methyl)-[1,1′-biphenyl]-4-yl)methoxy)cyclopentyl)-[3,3′-bipyridine]-5-carboxamide]
< 100	CN1CCN(Cc2ccc(-c3ccc(CO[C@H]4CCC[C@@H]4NC(=O)c4nc(-c5cnn(C)c5)cnc4N)cc3)cc2)CC1 [Example 194, 3-amino-6-(1-methyl-1H-pyrazol-4-yl)-N-((1S,2S)-2-((4′-((4-methylpiperazin-1-yl)methyl)-[1,1′-biphenyl]-4-yl)methoxy)cyclopentyl)pyrazine-2-carboxamide]
< 100	CN1C[C@H](NC(=O)c2cc(-c3cnn(C)c3)cnc2N)[C@@H](OCc2ccc(-c3ccc(CN4CCN(CCO)CC4)c(C(F)(F)F)c3)cc2)C1 [Example 445, 2-amino-N-((3S,4S)-4-((4′-((4-(2-hydroxyethyl)piperazin-1-vi)-methyl)-3′-(trifluoromethyl)-[1,1′-biphenyl]-4-yl)methoxy)-1-methylpyrrolidin-3-yl)-5-(1-methyl-1H-pyrazol-4-yl)nicotinamide]
< 100	CN1CCN(Cc2ccc(-c3ccc(CO[C@H]4CCC[C@@H]4NC(=O)c4cc(-c5ccncc5)cnc4N)cc3)cc2)CC1 [Example 377, 6-amino-N-((1S,2S)-2-((4′-((4-methylpiperazin-1-yl)methyl)-[1,1′-biphenyl]-4-yl)methoxy)cyclopentyl)-[3,4′-bipyridine]-5-carboxamide]
< 100	CC(c1ccc(-c2ccc(CO[C@H]3CCC[C@@H]3NC(=O)c3cc(-c4cnn(C)c4)cnc3N)cc2)cc1)N1C[C@@H](C)N(CCO)[C@@H](C)C1 (stereo partly drawn) [Example 211, 2-amino-N-((1S,2S)-2-((4′-(1-((3S,5R)-4-(2-hydroxyethyl)-3,5-dimethylpiperazin-1-yl)ethyl)-[1,1′-biphenyl]-4-yl)methoxy)cyclopentyl)-5-(1-methyl-1H-pyrazol-4-yl)nicotinamide]
< 100	Cn1cc(-c2cnc(N)c(C(=O)N[C@H]3CCC[C@@H]3OCc3ccc(-c4ccc(C5(N6CCN(CCO)CC6)CC5)cc4)cc3)c2)cn1 [Example 220, 2-amino-N-((1S,2S)-2-((4′-(1-(4-(2-hydroxyethyl)piperazin-1-yl)cyclopropyl)-[1,1′-biphenyl]-4-yl)methoxy)cyclopentyl)-5-(1-methyl-1H-pyrazol-4-yl)nicotinamide]
< 100	Cn1cc(-c2cnc(N)c(C(=O)N[C@H]3CCC[C@@H]3OCc3ccc(-c4ccc(CN5CCN(CCO)CC5)c(C(F)(F)F)c4)cc3)c2)cn1 [Example 205, 2-amino-N-((1S,2S)-2-((4′-((4-(2-hydroxyethyl)piperazin-1-yl)methyl)-3′-(trifluoromethyl)-[1,1′-biphenyl]-4-yl)methoxy)cyclopentyl)-5-(1-methyl-1H-pyrazol-4-yl)nicotinamide]
> 1000	CC(c1ccc(-c2ccc(CO[C@H]3CNC[C@@H]3NC(=O)c3cc(-c4cnn(C)c4)cnc3N)cc2)cc1)N1CCN(CCO)CC1 (stereo partly drawn) [Example 442, 2-amino-N-((3S,4S)-4-((4′-(1-(4-(2-hydroxyethyl)piperazin-1-yl)ethyl)-[1,1′-biphenyl]-4-yl)methoxy)pyrrolidin-3-yl)-5-(1-methyl-1H-pyrazol-4-yl)nicotinamide]
< 100	C[C@@H](c1ccc(-c2ccc(CO[C@H]3CCC[C@@H]3NC(=O)c3cc(-c4ccc(F)nc4)cnc3N)cc2)cc1)N1CCN(CCO)CC1 [Example 226, 6-amino-6′-fluoro-N-((1S,2S)-2-((4′-((S)-1-(4-(2-hydroxyethyl)piperazin-1-yl)ethyl)-[1,1′-biphenyl]-4-yl)methoxy)cyclopentyl)-[3,3′-bipyridine]-5-carboxamide]
< 100	CN1CCN(Cc2ccc(-c3ccc(CO[C@H]4CN(C)C[C@@H]4NC(=O)c4cc(-c5cnn(C)c5)cnc4N)cc3)cc2C(F)(F)F)CC1 [Example 437, 2-amino-5-(1-methyl-1H-pyrazol-4-yl)-N-((3S,4S)-1-methyl-4-((4′-((4-methylpiperazin-1-yl)methyl)-3′-(trifluoromethyl)-[1,1′-biphenyl]-4-yl)-methoxy)pyrrolidin-3-yl)nicotinamide]
< 100	Cn1cc(-c2cnc(N)c(C(=O)N[C@H]3CCC[C@@H]3OCc3ccc(-c4ccc(CN5CCN(CC(C)(C)O)CC5)cc4)cc3)c2)cn1 [Example 182, 2-amino-N-((1S,2S)-2-((4′-((4-(2-hydroxy-2-methylpropyl)-piperazin-1-yl)methyl)-[1,1′-biphenyl]-4-yl)methoxy)cyclopentyl)-5-(1-methyl-1H-pyrazol-4-yl)nicotinamide]
< 100	CN(C)C1CCN(Cc2ccc(-c3ccc(CO[C@H]4CCC[C@@H]4NC(=O)c4cc(-c5cnn(C)c5)cnc4N)cc3)cc2)C1 (stereo partly drawn) [Example 193, 2-amino-N-((1S,2S)-2-((4′-((3-(dimethylamino)pyrrolidin-1-yl)methyl)-[1,1′-biphenyl]-4-yl)methoxy)cyclopentyl)-5-(1-methyl-1H-pyrazol-4-yl)nicotinamide]
> 1000	Cn1cc(-c2cnc(N)c(C(=O)N[C@H]3CCC[C@@H]3OCc3ccc(-c4ccc(CCN)cc4)cc3)c2)cn1 [Example 145, 2-amino-N-((1S,2S)-2-((4′-(2-aminoethyl)-[1,1′-biphenyl]-4-yl)methoxy)cyclopentyl)-5-(1-methyl-1H-pyrazol-4-yl)nicotinamide]
< 100	CC1CCN(Cc2ccc(-c3cnc(N)c(C(=O)N[C@H]4CCC[C@@H]4OCc4ccc(-c5ccc(CN6CCN(C)CC6)cc5)cc4)c3)cc2)CC1 [Example 378, 2-amino-N-((1S,2S)-2-((4′-((4-methylpiperazin-1-yl)methyl)-[1,1′-biphenyl]-4-yl)methoxy)cyclopentyl)-5-(4-((4-methylpiperidin-1-yl)methyl)phenyl)-nicotinamide]
> 1000	CC(c1c(F)cc(-c2ccc(CO[C@H]3CCC[C@@H]3NC(=O)c3cc(-c4cnn(C)c4)cnc3N)cc2)cc1F)N1CCN(CCO)CC1 (stereo partly drawn) [Example 212, 2-amino-N-((1S,2S)-2-((3′,5′-difluoro-4′-(1-(4-(2-hydroxyethyl)-piperazin-1-yl)ethyl)-[1,1′-biphenyl]-4-yl)methoxy)cyclopentyl)-5-(1-methyl-1H-pyrazol-4-yl)nicotinamide]
< 100	CN1CCN(Cc2ccc(-c3ccc(CO[C@H]4CCC[C@@H]4NC(=O)c4cc(-c5ccc(CO)cc5)cnc4N)cc3)cc2)CC1 [Example 369, 2-amino-5-(4-(hydroxymethyl)phenyl)-N-((1S,2S)-2-((4′-((4-methylpiperazin-1-yl)methyl)-[1,1′-biphenyl]-4-yl)methoxy)cyclopentyl)nicotinamide]
< 100	Cn1cc(-c2cnc(N)c(C(=O)N[C@H]3COC[C@@H]3OCc3ccc(-c4ccc(CN5CCN(CCO)CC5)c(C(F)(F)F)c4)cc3)c2)cn1 [Example 452]
100 to 500	C[C@@H]1CN(Cc2ccc(-c3ccc(CO[C@H]4CCC[C@@H]4NC(=O)c4cc(-c5cnn(C)c5)cnc4N)cc3)cc2)C[C@H](C)N1 [Example 189, 2-amino-N-((1S,2S)-2-((4′-((cis-3,5-dimethylpiperazin-1-vi)-methyl)-[1,1′-biphenyl]-4-yl)methoxy)cyclopentyl)-5-(1-methyl-1H-pyrazol-4-yl)-nicotinamide]
< 100	C[C@@H]1CN(C)CCN1Cc1ccc(-c2ccc(CO[C@H]3CCC[C@@H]3NC(=O)c3cc(-c4cnn(C)c4)cnc3N)cc2)cc1 [Example 187, 2-amino-N-((1S,2S)-2-((4′-(((R)-2,4-dimethylpiperazin-1-yl)-methyl)-[1,1′-biphenyl]-4-yl)methoxy)cyclopentyl)-5-(1-methyl-1H-pyrazol-4-yl)-nicotinamide]
> 1000	CCc1cc(CO[C@H]2CNC[C@@H]2NC(=O)c2cc(-c3ccc(NS(C)(=O)=O)cc3)cnc2N)ccc1C [Example 401, 2-amino-N-((3S,4S)-4-((3-ethyl-4-methylbenzyl)oxy)pyrrolidin-3-yl)-5-(4-(methylsulfonamido)phenyl)nicotinamide]
< 100	CN1CCN(Cc2ccc(-c3ccc(CO[C@H]4CCC[C@@H]4NC(=O)c4cc(-c5cnn(C)c5)cnc4N)cc3)cc2O)CC1 [Example 199, 2-amino-N-((1S,2S)-2-((3′-hydroxy-4′-((4-methylpiperazin-1-yl)methyl)-[1,1′-biphenyl]-4-yl)methoxy)cyclopentyl)-5-(1-methyl-1H-pyrazol-4-yl)nicotinamide]
> 1000	Cc1ccc(CO[C@H]2CNC[C@@H]2NC(=O)c2cc(-c3cnn(C)c3)cnc2N)cc1 [Example 415, 2-amino-5-(1-methyl-1H-pyrazol-4-yl)-N-((3S,4S)-4-((4-methylbenzyl)oxy)pyrrolidin-3-yl)nicotinamide]
500 to 1000	CN(C)CCOc1ccc(-c2ccc(CO[C@H]3CCC[C@@H]3NC(=O)c3cc(-c4cnn(C)c4)cnc3N)cc2)cc1 [Example 245, 2-amino-N-((1S,2S)-2-((4′-(2-(dimethylamino)ethoxy)-[1,1′-biphenyl]-4-yl)methoxy)cyclopentyl)-5-(1-methyl-1H-pyrazol-4-yl)nicotinamide]
